This assay deals with CD13 expressed in HL-60 cells. In words: Inhibition of cell-associated CD13 enzymatic activity, HL-60 cells. In kind it is cell-based, human. To be noted: 3 × 10^5 cells/well, L-alanine p-nitroanilide, 30 min, 37 °C, absorbance 405 nm. As for the experimental part: Fig. 5 Quantification of CD13 expressed by HL-60 and HUVEC by western blotting and FACS analyses, and determination of their enzymatic activity. A Western blotting (WB) analysis of CD13 expression in HL-60 cells and HUVEC. For both cell lines, 2 µg of cell lysates were loaded in each well (n = 4–5 replicates, as indicated). After blotting, the membrane was cut and analyzed for CD13 and actin expression as described in Material and methods. The results of one representative experiment, out of three independent experiments performed, are shown (bars, ratio of CD13/actin band intensity, mean ± SEM). Recombinant human CD13 (rCD13) (20 ng) was loaded as positive control. MW, molecular weight markers. B FACS analysis of CD13 expression in HUVEC and HL-60 cells. The cells were incubated with mAb WM15 (10 μg/mL) and stained with a FITC-labeled goat anti-mouse IgG (H + L) secondary antibody. Data were expressed as fluorescence intensity and normalized to the number of cells. The cumulative results of three independent experiments are shown (each performed in duplicate; mean ± SEM). C Enzyme activity assay of CD13 expressed in HUVEC and HL-60 cells. […] Absorbance at 405 nm was measured using a plate reader. The enzyme units in each sample were calculated using rCD13 as a standard and were normalized to the number of cells. […] The absorbance was measured at 405 nm using a plate reader. […]

Results on 1 substance are retold here after publication PMC10827914 (Cellular and Molecular Life Sciences: CMLS, 2024).

For the substance “VGCARRYCS-TNF [G4-TNF, recombinant murine TNF fused to the C-terminus of G4]”, the “Inhibition of CD13 enzymatic activity associated with HL-60 cells (in words)” value is “did not inhibit”.
